Legend:
[1] = Thiol reactivity by incubation with excess thiol, HPLC-UVvis; assay type: physicochemical
Protocol: FIGS. 5A-5B: Thiol reactivity was analyzed via incubations containing 31b (250 μM) in the presence or absence of excess (5 mM) cysteine (or N-acetylcysteine [NAc]) in PBS (50 mM, pH
(§1) 7.4) at 37° C. (FIG. 5A). Incubations were placed in a temperature controlled HPLC autosampler and aliquots are analyzed by HPLC-UVvis periodically for 2-24 hr. Percent furoxan remaining was determined based on the area under the curve (AUC) of the HPLC UV-absorbance spectrum. Similarly, rat liver microsomes were incubated with 31b in the presence or absence of NADPH to determine microsomal stability (FIG. 5B). Warfarin and verapamil were used as slow and fast metabolizing controls.
Without wishing to be bound by theory, it is believed that furoxans require thiol attack to produce NO. […] Thiol reactivity of 31b was assessed via incubations with excess thiol (N-acetylcysteine [NAc]) at physiological pH and temperature using a temperature controlled HPLC autosampler. […]
(§2) HPLC method: solvents, H2O [0.1% FA]—solvent A; MeOH [0.1% FA]—solvent B; flow rate 1.0 mL/min. […] As described above, thiol reactivity was analyzed via incubations containing the furoxan (250 μM) in the presence or absence of excess (5 mM) cysteine (or N-acetylcysteine [NAc]) in PBS (50 mM, pH 7.4) at 37° C. Incubations were placed in a temperature controlled HPLC autosampler and aliquots were analyzed by HPLC-UVvis periodically for 2-24 hr. […]

[2] = Rat liver microsome metabolic stability; assay type: in vitro ADME; conditions: rat liver microsomes, read-out: RLM t1/2
Protocol: as §1
Metabolic stability is an important parameter for determining the drug-like properties of a molecule, especially when trying to develop attenuated furoxans which require reaction with thiols to produce an effect. The metabolism of 31b in the presence of rat liver microsomes (RLM) was studied. Verapamil and warfarin were used as well-characterized controls. […]
as §2, with “hr. Percent furoxan remaining was determined based on the area under the curve (AUC) of the HPLC UV-absorbance spectrum.” for “hr.”

[3] = In vivo pharmacokinetics, plasma and forebrain levels by LC-MS/MS; design: species or system mice
Protocol: FIGS. 6A-6C: The ratio of the AUC of the MRM transition for 31b versus 41b was calculated and the resulting values were normalized based on total protein concentration of samples (determined by Bradford assay). N=4 per group. Data shown as SEM, analysis by one way ANOVA with Tukey's post-test. *=p<0.05. Half-life's were calculated based on first order exponential decay.
31b was administered to mice and specimens were processed according to FIG. 4A. Levels of 31b were determined in the plasma and forebrain after intraperitoneal (ip) and oral (po) administration at varying post-administration time points (1, 2, or 12 hr [N=4 per cohort]). […] A deuterated (d^4) analog of 31b, designated 41b, was synthesized for LC-MS studies. Deuterated internal standards are required for absolute quantitation via LC-MS/MS and are desirable for because they have identical physiochemical properties to their non-deuterated kin, but may be distinguished based on molecular weight. Inclusion of 41b allows for control of extraction efficiency, technique proficiency, and instrumentation sensitivity. Extraction methodology and tandem LC-MS/MS parameters (optimized MRM transitions) were developed and validated via extraction of blank brain tissue spiked with 31b and 41b to develop a calibration curve. In this initial evaluation, the appropriate forebrain and plasma samples were spiked with a fixed concentration of 41b, homogenized in extraction buffer, applied to a solid phase resin cartridge, eluted, concentrated, reconstituted, and analyzed via MRM monitoring using LC-MS/MS. […] There were no significant differences in levels of 31b in the brain (B) versus plasma (P), with an average B:P ratio of 1.6 (±0.8). […] Without wishing to be bound by theory, it is believed that low oral bioavailability of 31b is the result of rapid 1st pass metabolism, since the microsomal stability studies indicate poor hepatic stability. The use of common dosage form strategies likely results in improved oral bioavailability. Alternative administration routes, including intranasal, are also believed to result in high brain bioavailability based on the relativity high lipophilicity of the embodiments tested. […] Moreover, the physiochemical properties proposed as being appropriate for CNS drugs are appropriate. The long residence time of the furoxan (visible in the brain after 12 hr), indicates an ideal scenario for daily dosing.
Forebrain tissue (˜30 mg) was homogenized in 1 ml of tissue extraction buffer (Invitrogen) containing a protease inhibitor cocktail (PIC). 100 μL of the resulting homogenate (or 100 μL of plasma) was spiked with 2% Formic acid (200 μL, containing 41b [0.5 μM]—internal standard) and vortexed for 1 min. The mixture was applied to an Evolute Express ABN column (Biotage) and filtered through via vacuum filtration. The matrix was washed with dH2O (1 mL) and analytes eluted with MeOH (1 mL). The resulting extract was evaporated to dryness by passing over air and reconstituted in ACN/dH2O (100 μL). A 10 μL injection was analyzed by LC-MS/MS. Analysis was carried out on a Shimadzu Nexera XR HPLC coupled with a Shimadzu 8050 triple quadrupole mass spectrometer. LC utilized a Kinetex-core column (Phenomenex): 2.6 um C18 100 A, 100×4.6 mm. HPLC Method: solvents, H2O [0.1% FA]—solvent A; MeOH [0.1% FA]—solvent B; flow rate 1.0 mL/min (utilized Tsplitter, mass spectrometer effective flow rate 0.4 mL/min). Gradient: t=2 min, 5% B; t=6 min, 95% B; t=7.0 min, 95% B; t=7.01, 5% B. Stop time 10 min. Diverter valve was utilized and eluent only averted to MS from 5 min-8 min. Quantity was determined based on the AUC of the internal standard versus the AUC of the analyte peak.

[4] = test system: CREB phosphorylation at Ser-133; assay: In vivo pharmacodynamics, hippocampal pCREB:tCREB by ELISA; conditions: scopolamine treated mice plus 31b 20 or 40 mg/kg ip

## CC1CCN(Cc2no[n+]([O-])c2-c2ccc(F)cc2)CC1 [31b]
[1]
  Stability in the presence of general cellular thiols, such as GSH and cysteine: extremely stable
[1]; 250 μM, 5 mM N-acetylcysteine, PBS pH 7.4, 37° C., after 24 hr
  Change in amount of furoxan with excess thiol: no measurable change
[2]
  half-life: ~11 min
[3]; mice
  Amounts in ip-treated mice compared to oral gavage: significantly higher amounts in ip-treated mice
[3]; mice, ip and po
  Levels in plasma and forebrain after 12 h: detectable levels
[3]; mice, po
  Oral bioavailability: low
[3]; mouse, forebrain versus plasma, other: intraperitoneal (ip) and oral (po), averaged together, mice, read-out: Average B:P ratio (brain versus plasma)
  Kp: 1.6
[3]; mouse, in vivo
  Brain penetration: significant brain penetration
[3]; mouse, plasma and forebrain, intraperitoneal and oral, mice, ip and po, first order exponential decay, read-out: In vivo t1/2 for brain and plasma
  half-life: 50 to 110 min
[4]
  Hippocampal pCREB:tCREB ratio: trends toward reversal
